Reference: US11534377B2, “Hair growth agent” (KOBAYASHI PHARMACEUTICAL CO., LTD., priority 2016, dated 2022)

Key:
[1] = test system: transplanted mice (hair follicles of haired mice transplanted into the back of nude mice); test: Hair shaft growth in nude mice transplanted with hair follicles of haired mice (Example 1); type: in vivo; details: for Hair shaft growth rate: topical 4 times per day
Experimental: Hair follicles (surgically prepared) of haired mice were transplanted into the back of nude mice (from Sankyo Labo Service Corporation, Inc.) to produce transplanted mice manipulated such that each hair can be distinguished and a plurality of hair cycles can be observed. First, a 50% ethanol aqueous solution (12.5 μl, not containing the agent) was applied to the transplanted mice 4 times per day during new hair growth in the first hair cycle to obtain reference data of a hair cycle. After the hair had shed following the end of the first hair cycle, a 50% ethanol aqueous solution (12.5 μl) containing a predetermined amount of the agent was applied to the mice 4 times per day to obtain data on effects of the agent. After the hair had shed following the end of the second hair cycle, a 50% ethanol aqueous solution (12.5 μl) containing the agent in the same amount as that in the second hair cycle was applied to the mice in a similar manner to the second hair cycle to obtain reproducibility data on effects of the agent. As the agent, D-chiro-inositol (from Wako Pure Chemical Industries Ltd.) and its stereoisomers as chiro-inositol, L-chiro-inositol (from Tokyo Chemical Industry Co., Ltd.), myo-inositol (from Wako Pure Chemical Industries Ltd.), allo-inositol (cis-1,2,3,4-trans-5,6-cyclohexaneheaxol) (from Tokyo Chemical Industry Co., Ltd.), epi-inositol (cis-1,2,3,4,5-trans-6-cyclohexanehexaol) (from Tokyo Chemical Industry Co., Ltd.), muco-inositol (cis-1,2,4,5-trans-3,6-cyclohexanehexaol) (from Tokyo Chemical Industry Co., Ltd.), and scyllo-inositol (cis-1,3,5-trans-2,4,6-cyclohexanehexaol) (from Tokyo Chemical Industry Co., Ltd.) were used. For each agent solution, the lengths of hair shafts were measured every 2 to 3 days, an average length of hair shafts that changed day by day was plotted as one dot at each time point in a graph, and a similar plotting was repeated for 3 to 4 mice. The results were shown in Tables 1 to 14 and FIGS. 1 to 14.

[2] = test system: obese mice; details: insulin sensitivity increasing substances, PTL 2; cited from earlier work
[3] = test system: crab-eating macaque (Macaca fascicularis); test: New hair growth test in monkey (Example 4); type: in vivo; details: 1 wt % in 50% ethanol, once/day 150 μl, 8 weeks, sparse hair region of head; number of hair before application = 100%
From the text: A crab-eating macaque (Macaca fascicularis) is a monkey (class: Mammalia, order: Primates, family: Cercopithecidae, genus: Macaca) that has many similarities to humans, such as the morphology of the temporomandibular joint, and is frequently employed as a laboratory animal for morphological studies and medication studies due to its easy breeding and rearing. The crab-eating macaque is known for the replacement of the body hair in a six-month cycle in a year. Among aged female monkeys that had babies repeatedly and aged male monkeys of low social status, individuals with observed symptoms of hair thinning or sparse hair emerge with low frequency. […] In this Example, to an aged crab-eating macaque (19 years of age, male) having sparse body hair of the head, a test solution A in which D-chiro-inositol (from Wako Pure Chemical Industries Ltd.) was dissolved in 50% ethanol at a concentration of 1 wt % and a test solution B in which myo-inositol was dissolved in 50% ethanol at a concentration of 1 wt % were applied every day to about 4 cm^2-sparse hair regions (2 cm×2 cm) in both left and right sides across the median line of the head of the macaque. The application (once/day, 150 μl) was performed over 8 weeks, and 50% ethanol was applied as a negative control. At the end of 8 weeks, hair shafts in the applied regions were cut with hair clippers while leaving 2 to 3 mm from pores toward the outside of the body, and the total number of hair protruded from the pores in the applied regions was counted. A new hair growth rate was calculated as an increase rate in the number of hair at the end of 8 weeks, relative to the number of hair protruded from pores in the same regions before the application at the start of the test as 100%.

[4] = test system: hair papilla cells; test: Hair papilla cell proliferation test by two-dimensional culture (Example 5); type: cell-based, C57BL/6N mouse; details: final concentration 0.1 wt %, cultured for 3 days; FIG. 18
From the text: Hair papilla cells transmit new hair growth signals to hair matrix cells via signaling substances to activate hair matrix cells, thereby controlling processes of new hair growth and hair elongation. Accordingly, the hair shaft growth promoting activity and the like of test substances can be evaluated from a proliferation rate of hair papilla cells. In this Example, the skin of the whisker region was taken from a C57BL/6N mouse and hair papillae were harvested from isolated whisker follicles under a stereo microscope. Six hair papillae were fixed to the bottom surface of a 60 mm-plastic petri dish (from Sumitomo Bakelite Co., Ltd.), and the primary culture was performed at 37° C. in the presence of 5% CO2 by using a hair papilla cell culture medium in which 2% FCS (fetal calf serum), 0.6% ITT (insulin-transferrin-triiodothyronine mixture), 1% BPE (bovine pituitary extract), and 0.6% Cyp (cyproterone solution) were added to a PCGM base medium. Afterwards, the medium was replaced every 2 to 3 days and subculturing was repeated about every two weeks. In this experiment, hair papilla cells at passage 3 or less were used. […] The number of cells after culturing for 3 days was counted by using a hemocytometer, and proliferation rates in test solution A and the test solution B were calculated relative to 100% for a proliferation rate in the negative control as 100%.

[5] = test system: hair papilla cell spheroids; test: Hair papilla cell proliferation test by three-dimensional culture (Example 6); type: cell-based, C57BL/6N mouse; details: final concentrations 0.05 wt %, 0.1 wt %, and 1 wt %, cultured for 3 days; FIG. 19
Experimental: In this Example, hair papilla cells prepared in a similar manner to Example 5 were seeded in a 96-well U-bottom microplate for cell culture (from Sumitomo Bakelite Co., Ltd.) at 6,000 cells/well and centrifuged with a plate centrifuge at room temperature and at a rotating speed of 1,000 rpm for 1 minute to yield three-dimensional hair papilla cell spheroids. The spheroids were cultured for 3 days by using each of test solutions A1 to A3 that were hair papilla cell culture media to which D-chiro-inositol dissolved in PBS was added at a final concentration of 0.05 wt %, 0.1 wt %, or 1 wt %; test solutions B1 to B3 that were hair papilla cell culture media to which myo-inositol dissolved in PBS was added at a final concentration of 0.05 wt %, 0.1 wt %, or 1 wt %; and a negative control that was a hair papilla cell culture medium to which PBS alone was added. The spheroids after culturing for 3 days were imaged by using a VHX2000 digital microscope (Keyence Corporation), and the area of the spheroids was calculated by using a digital microscope analysis tool. By calculating a spheroid area increase rate in the test solutions A1 to A3 and B1 to B3, relative to an area increase rate in the negative control as 100%, the proliferation of hair papilla cells in conditions further close to in vivo condition was quantified.

[6] = 5 wt % in 50% ethanol, second hair cycle
[7] = 5 wt % in 50% ethanol, third hair cycle (reproducibility)
[8] = 5 wt %, third hair cycle (reproducibility)
[9] = 1 wt % in 50% ethanol, second hair cycle
[10] = 1 wt % in 50% ethanol, third hair cycle (reproducibility)
[11] = 1 wt %, third hair cycle (reproducibility)

For `OC1C(O)C(O)C(O)C(O)C1O` [L-chiro-inositol], the “Hair growth activity (hair shaft growth rate and maximum length vs reference data)” value ([1]; 5 wt %) was “hair growth activity was not confirmed”, the “Hair shaft growth rate” value [1, 6] was 0.33 ± 0.08 mm/day and the “Hair shaft growth rate” value [1, 7] was 0.33 ± 0.13 mm/day. For the same compound, the “Hair shaft maximum length” value ([1]; 5 wt %, second hair cycle) was 4.9 ± 0.7 mm and the “Hair shaft maximum length” value [1, 8] was 4.8 ± 0.8 mm.

For `OC1C(O)C(O)C(O)C(O)C1O` (stereo not drawn) [allo-inositol, cis-1,2,3,4-trans-5,6-cyclohexaneheaxol], the “Hair shaft growth rate” value [1, 9] was 0.37 ± 0.03 mm/day, the “Hair shaft growth rate” value [1, 10] was 0.40 ± 0.04 mm/day and the “Hair shaft maximum length” value ([1]; 1 wt %, second hair cycle) was 5.0 ± 0.5 mm. For the same compound, the “Hair shaft maximum length” value [1, 11] was 5.2 ± 0.5 mm, the “Hair shaft growth rate” value [1, 6] was 0.43 ± 0.02 mm/day and the “Hair shaft growth rate” value [1, 7] was 0.40 ± 0.03 mm/day. The “Hair growth activity (hair shaft growth rate and maximum length vs reference data)” value ([1]; 5 wt % or 1 wt %) was “hair growth activity was not confirmed”, the “Hair shaft maximum length” value ([1]; 5 wt %, second hair cycle) was 5.5 ± 0.3 mm and the “Hair shaft maximum length” value [1, 8] was 5.5 ± 0.8 mm.

In the case of `OC1C(O)C(O)C(O)C(O)C1O` (stereo not drawn) [epi-inositol, cis-1,2,3,4,5-trans-6-cyclohexanehexaol], the “Hair shaft growth rate” value [1, 9] is reported as 0.43 ± 0.06 mm/day, the “Hair shaft growth rate” value [1, 10] is reported as 0.45 ± 0.09 mm/day and the “Hair shaft maximum length” value ([1]; 1 wt %, second hair cycle) is reported as 5.2 ± 0.3 mm. For the same compound, the “Hair shaft maximum length” value [1, 11] was 5.3 ± 0.4 mm, the “Hair shaft growth rate” value [1, 6] was 0.33 ± 0.09 mm/day and the “Hair shaft growth rate” value [1, 7] was 0.32 ± 0.09 mm/day. For the same compound, the “Hair growth activity (hair shaft growth rate and maximum length vs reference data)” value ([1]; 5 wt % or 1 wt %) was “hair growth activity was not confirmed”, the “Hair shaft maximum length” value ([1]; 5 wt %, second hair cycle) was 4.7 ± 0.6 mm and the “Hair shaft maximum length” value [1, 8] was 4.5 ± 0.6 mm.

For `CN(C)C(=N)N=C(N)N` [metformin], the “Effect on hair loss” value [2] is given as “prevented hair loss or slowed progress of hair loss”.

In the case of `OC1C(O)C(O)C(O)C(O)C1O` (stereo not drawn) [muco-inositol, cis-1,2,4,5-trans-3,6-cyclohexanehexaol], the “Hair growth activity (hair shaft growth rate and maximum length vs reference data)” value ([1]; 5 wt %) is reported as “hair growth activity was not confirmed”, the “Hair shaft growth rate” value [1, 6] is reported as 0.35 ± 0.03 mm/day and the “Hair shaft growth rate” value [1, 7] is reported as 0.36 ± 0.10 mm/day. The “Hair shaft maximum length” value ([1]; 5 wt %, second hair cycle) was 4.9 ± 0.3 mm and the “Hair shaft maximum length” value [1, 8] was 5.1 ± 0.3 mm.

In the case of `O[C@H]1[C@H](O)[C@@H](O)[C@H](O)[C@@H](O)[C@H]1O` [myo-inositol, cis-1,2,3,5-trans-4,6-cyclohexanehexaol], the “Hair shaft growth rate” value [1, 9] is reported as 0.45 ± 0.03 mm/day, the “Hair shaft growth rate” value [1, 10] is reported as 0.44 ± 0.08 mm/day and the “Hair shaft maximum length” value ([1]; 1 wt %, second hair cycle) is reported as 4.9 ± 0.5 mm. For the same compound, the “Hair shaft maximum length” value [1, 11] was 5.0 ± 0.5 mm, the “Hair shaft growth rate” value [1, 6] was 0.37 ± 0.05 mm/day and the “Hair shaft growth rate” value [1, 7] was 0.39 ± 0.06 mm/day. The “Hair growth activity (hair shaft growth rate and maximum length vs reference data)” value ([1]; 5 wt % or 1 wt %) was “hair growth activity was not confirmed”, the “Hair shaft maximum length” value ([1]; 5 wt %, second hair cycle) was 4.6 ± 0.5 mm and the “Hair shaft maximum length” value [1, 8] was 4.7 ± 0.5 mm. For the same compound, the “New hair growth rate” value [3] was 107.1%, the “Hair papilla cell proliferation rate vs negative control” value [4] was “no significant difference was observed” and the “Hair papilla cell spheroid area vs negative control” value [5] was “no significant differences were observed”.

For `O[C@H]1[C@H](O)[C@@H](O)[C@H](O)[C@@H](O)[C@@H]1O` [scyllo-inositol, cis-1,3,5-trans-2,4,6-cyclohexanehexaol], the “Hair growth activity (hair shaft growth rate and maximum length vs reference data)” value ([1]; 5 wt %) was “hair growth activity was not confirmed”, the “Hair shaft growth rate” value [1, 6] was 0.35 ± 0.09 mm/day and the “Hair shaft growth rate” value [1, 7] was 0.35 ± 0.09 mm/day. For the same compound, the “Hair shaft maximum length” value ([1]; 5 wt %, second hair cycle) was 4.4 ± 0.3 mm and the “Hair shaft maximum length” value [1, 8] was 4.4 ± 0.5 mm.
